“And” between values parts separate entries of the source, which are not always exact repeats. Equal values may be shown once.
How the values were obtained:
DRD1 = DRD1 (Homo sapiens, UniProt P21728); assay: β-arrestin2 recruitment (Tango); type: cell-based; details: agonist mode
DRD5 = DRD5 (Homo sapiens, UniProt P21918); assay: β-arrestin2 recruitment (Tango); type: cell-based; details: Fig_S10e, single replicates
Sequence of DRD5 (P21918 whole entry): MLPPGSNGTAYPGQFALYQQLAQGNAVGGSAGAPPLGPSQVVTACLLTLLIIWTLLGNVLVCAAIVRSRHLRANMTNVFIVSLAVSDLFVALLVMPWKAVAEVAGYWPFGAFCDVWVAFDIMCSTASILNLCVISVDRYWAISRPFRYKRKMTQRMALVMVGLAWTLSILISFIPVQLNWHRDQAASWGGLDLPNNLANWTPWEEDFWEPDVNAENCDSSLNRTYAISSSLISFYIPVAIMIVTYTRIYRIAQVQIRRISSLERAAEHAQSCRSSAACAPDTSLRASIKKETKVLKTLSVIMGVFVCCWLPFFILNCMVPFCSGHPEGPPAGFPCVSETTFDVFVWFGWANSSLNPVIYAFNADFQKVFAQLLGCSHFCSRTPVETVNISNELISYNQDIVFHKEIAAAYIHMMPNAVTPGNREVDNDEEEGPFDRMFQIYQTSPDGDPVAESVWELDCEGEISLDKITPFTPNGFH

Sequence of DRD1 (P21728 whole entry): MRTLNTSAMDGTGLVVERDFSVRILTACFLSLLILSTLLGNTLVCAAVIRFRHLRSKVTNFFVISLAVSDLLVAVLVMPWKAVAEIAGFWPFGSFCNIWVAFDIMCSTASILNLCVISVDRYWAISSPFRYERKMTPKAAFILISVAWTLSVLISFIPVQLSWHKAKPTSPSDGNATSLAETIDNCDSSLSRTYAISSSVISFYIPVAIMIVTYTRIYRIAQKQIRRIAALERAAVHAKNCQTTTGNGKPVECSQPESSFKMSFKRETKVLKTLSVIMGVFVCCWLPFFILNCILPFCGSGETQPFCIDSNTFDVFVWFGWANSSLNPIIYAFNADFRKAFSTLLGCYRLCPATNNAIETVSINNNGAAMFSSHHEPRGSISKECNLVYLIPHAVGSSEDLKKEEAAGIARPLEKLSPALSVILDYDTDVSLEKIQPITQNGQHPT

In the case of `Oc1ccc2c(c1O)Oc1cccc3c1C2CNC3` (stereo not drawn) [dinoxyline], the “Fig_S10d concentration-response source data, compound alone (replicates)” value (DRD1; Log[Drug] -6.52) is reported as 10.0073, the “Fig_S10d concentration-response source data, compound alone (replicates)” value (DRD1; Log[Drug] -7) is reported as 4.307 and 1.205 and 1.227 and 4.484 and 2.979 and 2.557 and 2.04 and -0.1301 and 1.092 and the “Fig_S10d concentration-response source data, compound alone (replicates)” value (DRD1; Log[Drug] -7.52) is reported as 1.579 and 3.303 and 0.5491 and 3.089 and 1.082 and 1.378 and -0.7612 and -0.8315 and -0.809. The “Fig_S10d concentration-response source data, compound alone (replicates)” value (DRD1; Log[Drug] -8) was 1.257 and 1.231 and 1.566 and 0.913 and 0.3538 and 0.1991 and -0.676 and -1.057 and 0.2893, the “Fig_S10d concentration-response source data, compound alone (replicates)” value (DRD1; Log[Drug] -8.52) was 0.2231 and 2.08 and 8.446 and 0.2359 and 0.07888 and 0.01718 and -0.4841 and -1.204 and -0.2743 and the “Fig_S10d concentration-response source data, compound alone (replicates)” value (DRD1; Log[Drug] -9) was 0.9179 and 0.03861 and 0.7078 and 0.082 and -0.04373 and 0.0164 and -1.424 and -1.237 and -0.4972. For the same compound, the “Fig_S10d concentration-response source data, compound alone (replicates)” value (DRD1; Log[Drug] -9.52) was 0.9179 and 1.428 and 0.9008 and 0.3038 and -0.1367 and -0.264 and -0.706 and -1.205 and -0.04775, the “Fig_S10d concentration-response source data, compound alone (replicates)” value (DRD1; Log[Drug] -10) was -0.2788 and -0.1244 and 1.737 and -0.3538 and -0.2647 and 0.1437 and -1.4279 and -0.8642 and -0.7996 and the “Fig_S10d concentration-response source data, compound alone (replicates)” value (DRD1; Log[Drug] -10.52) was -0.2788 and 0.2273 and 1.767 and 0.02109 and 0.9895 and -0.1132 and 0.1507 and -0.4242 and -0.1601. For the same compound, the “Fig_S10d concentration-response source data, compound alone (replicates)” value (DRD1; Log[Drug] -11) was 0.5834 and 0.2231 and 0.5491 and -0.5092 and -0.2671 and 0.4842 and -1.071 and -0.647 and 0.1395, the “Fig_S10d concentration-response source data, compound alone (replicates)” value (DRD1; Log[Drug] -11.52) was -0.1115 and 1.072 and 4.68 and 0.05545 and 0.239 and 0.3608 and 3.618 and -0.7331 and -0.985 and the “Fig_S10d concentration-response source data, compound alone (replicates)” value (DRD1; Log[Drug] -12) was -0.2702 and -0.1115 and 0.3903 and -0.474 and -0.4764 and -0.3218 and 3.0206 and -0.9897 and -0.8633. For the same compound, the “β-arrestin2 recruitment response, agonist mode (normalized)” value (DRD5; Log[Drug] -6.52) was 50.9959 and 44.5818 and 81.7753 and 73.11 and 53.8362, the “β-arrestin2 recruitment response, agonist mode (normalized)” value (DRD5; Log[Drug] -7) was 44.4286 and 33.2805 and 57.3924 and 47.0403 and 55.7358 and 61.3062 and 41.0525 and 43.6565 and the “β-arrestin2 recruitment response, agonist mode (normalized)” value (DRD5; Log[Drug] -7.52) was 33.6662 and 25.4134 and 56.8006 and 39.9881 and 23.8046 and 44.1458 and 17.6483 and 11.4811. The “β-arrestin2 recruitment response, agonist mode (normalized)” value (DRD5; Log[Drug] -8) was 7.481 and 4.412 and 28.4866 and 15.182 and 15.3449 and 6.879 and 1.575 and 2.947, the “β-arrestin2 recruitment response, agonist mode (normalized)” value (DRD5; Log[Drug] -8.52) was 7.423 and 8.3056 and 10.7658 and 9.092 and 10.1938 and 2.126 and 2.041 and 8.64 and the “β-arrestin2 recruitment response, agonist mode (normalized)” value (DRD5; Log[Drug] -9) was 0.5231 and -1.384 and 1.379 and 3.9644 and 2.988 and 7.407 and -1.292 and -1.934 and 0.3332. For the same compound, the “β-arrestin2 recruitment response, agonist mode (normalized)” value (DRD5; Log[Drug] -9.52) was 0.9986 and 0.1427 and 0.1268 and 2.609 and 1.523 and 1.227 and -2.233 and -1.075 and -0.4405, the “β-arrestin2 recruitment response, agonist mode (normalized)” value (DRD5; Log[Drug] -10) was -2.61 and -1.543 and -0.2906 and 1.406 and 1.213 and 1.593 and -1.565 and -1.034 and 0.3624 and the “β-arrestin2 recruitment response, agonist mode (normalized)” value (DRD5; Log[Drug] -10.52) was 3.973 and -1.363 and 0.9616 and 3.254 and 1.908 and 2.385 and -0.2872 and 0.4781 and -0.9479. The “β-arrestin2 recruitment response, agonist mode (normalized)” value (DRD5; Log[Drug] -11) was -1.141 and 0.9563 and 6.05 and 0.4043 and -0.1448 and 1 and -1.291 and -1.255 and 0.5855, the “β-arrestin2 recruitment response, agonist mode (normalized)” value (DRD5; Log[Drug] -11.52) was 0.7872 and 1.828 and -1.791 and 1.074 and 2.305 and 1.525 and -1.001 and -2.087 and -0.1993 and the “β-arrestin2 recruitment response, agonist mode (normalized)” value (DRD5; Log[Drug] -12) was -1.5322 and -0.4861 and -0.05283 and -0.02136 and -0.01028 and 2.843 and -2.166 and -0.9521 and 0.6036.

Source: PMC7044277 (Nature Communications, 2020)
